From patent US8946439B2, “Amide compounds, compositions and uses thereof” (Evotec AG, priority 2008, dated 2015)

Tests used:
hP2X2/3H = target: T1, hP2X2/3H (Homo sapiens, UniProt P56373+Q9UBL9); assay: Calcium uptake assay (P2X antagonist assay), P2X2/3 heteromer; assay type: cell-based; settings: Ca influx (calcium uptake assay), hP2X2/3H; read-out: IC50 hP2X2/3H
T1 construct: expressed in transfected cells; host or cells: e.g. HEK293 or 1321N1
T1 sequence (Q9UBL9 1-471): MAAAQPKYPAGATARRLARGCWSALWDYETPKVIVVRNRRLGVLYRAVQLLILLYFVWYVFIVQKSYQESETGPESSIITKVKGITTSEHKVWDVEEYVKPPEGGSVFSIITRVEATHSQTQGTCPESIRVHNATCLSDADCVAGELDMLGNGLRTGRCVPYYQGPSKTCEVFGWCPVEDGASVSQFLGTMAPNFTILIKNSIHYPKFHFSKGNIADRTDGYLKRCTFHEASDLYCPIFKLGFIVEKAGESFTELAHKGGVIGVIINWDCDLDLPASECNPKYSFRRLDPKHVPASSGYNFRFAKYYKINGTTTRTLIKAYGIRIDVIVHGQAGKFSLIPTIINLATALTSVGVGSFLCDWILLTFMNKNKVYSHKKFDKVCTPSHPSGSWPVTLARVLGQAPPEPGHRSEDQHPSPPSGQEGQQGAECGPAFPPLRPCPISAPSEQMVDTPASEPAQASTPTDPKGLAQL
T1 sequence (P56373 1-397): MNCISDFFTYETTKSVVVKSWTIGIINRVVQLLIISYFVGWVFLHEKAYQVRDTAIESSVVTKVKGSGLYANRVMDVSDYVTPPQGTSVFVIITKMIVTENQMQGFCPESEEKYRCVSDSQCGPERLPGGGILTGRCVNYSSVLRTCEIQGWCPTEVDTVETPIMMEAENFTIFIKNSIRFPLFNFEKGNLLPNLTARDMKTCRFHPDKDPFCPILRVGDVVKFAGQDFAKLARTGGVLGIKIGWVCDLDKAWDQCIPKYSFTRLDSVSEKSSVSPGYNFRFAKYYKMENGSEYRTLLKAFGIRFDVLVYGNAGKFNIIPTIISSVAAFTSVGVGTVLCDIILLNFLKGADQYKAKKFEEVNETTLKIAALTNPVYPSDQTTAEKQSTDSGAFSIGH
Method in brief: (§1)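 Stably or transiently transfected HEK293 or 1321N1 cells; the heteromer is made by adding P2X3 to a P2X2-stable line, with heteromer function isolated pharmacologically. The peak-minus-baseline FLIPR calcium signal gives % inhibition and a 4-parameter-logistic IC50.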

hP2X3 = target: T2, hP2X3 (Homo sapiens, UniProt P56373); assay: Calcium uptake assay (P2X antagonist assay), P2X3 homomer; assay type: cell-based; settings: Ca influx (calcium uptake assay), hP2X3; read-out: IC50 hP2X3
T2 construct: expressed in transfected cells; host or cells: e.g. HEK293 or 1321N1
T2 sequence (P56373 1-397): T1 sequence (P56373 1-397)
Method in brief: as §1

Structure (SMILES)	IC50 (hP2X2/3H) [nM]	IC50 (hP2X3) [nM]
Cc1ccc(-c2cc(C(=O)NCc3ccc(C)nc3)cc(C(O)c3ccccn3)c2)cc1 (stereo not shown) [Compound 240, 5-(Hydroxy(pyridin-2-yl)methyl)-4′-methyl-N-((6-methylpyridin-3-yl)methyl)biphenyl-3-carboxamide]	< 100	< 100
Cc1ccc(-c2cc(C(=O)N[C@H](C)c3ccc(C)nc3)cc(C(O)c3ccccn3)c2)cc1 (stereo partly drawn) [Compound 241, 5-(Hydroxy(pyridin-2-yl)methyl)-4′-methyl-N—((R)-1-(6-methylpyridin-3-yl)ethyl)biphenyl-3-carboxamide]	< 100	< 100
Cc1ccc(-c2cc(Oc3ccccn3)cc(C(=O)N[C@H](C)c3ccc(C)nc3)c2)cc1 [Compound 242, (R)-4′-Methyl-N-(1-(6-methylpyridin-3-yl)ethyl)-5-(pyridin-2-yloxy)biphenyl-3-carboxamide]	< 100	100 to 500
Cc1ccc(-c2cc(Oc3ccccn3)cc(C(=O)N[C@H](C)c3cnc(C)nc3)c2)cc1 [Compound 243]	< 100	100 to 500
Cc1ccc(-c2cc(CN3CCN(C)CC3)cc(C(=O)NCc3ccc(C)nc3)c2)nc1 [Compound 244]	501 to 1000	100 to 500
Cc1ccc(-c2cc(Oc3ncccn3)cc(C(=O)N[C@H](C)c3ccc(C)nc3)c2)c(C#N)c1 [Compound 246]	100 to 500	< 100
Cc1ccc(-c2cc(Oc3ncccn3)cc(C(=O)N[C@H](C)c3cnc(C)nc3)c2)c(C#N)c1 [Compound 247]	100 to 500	< 100
COCCOc1cc(C(=O)NCc2ccc(C)nc2)cc(-c2ccc(C)cc2)c1 [Compound 248, 5-(2-Methoxyethoxy)-4′-methyl-N-((6-methylpyridin-3-yl)methyl)biphenyl-3-carboxamide]	< 100	< 100
COCCOc1cc(C(=O)N[C@H](C)c2ccc(C)nc2)cc(-c2ccc(C)cc2)c1 [Compound 249]	< 100	< 100
COCCOc1cc(C(=O)NCc2cnc(C)nc2)cc(-c2ccc(C)cc2)c1 [Compound 250]	100 to 500	< 100
COCCOc1cc(C(=O)N[C@H](C)c2cnc(C)nc2)cc(-c2ccc(C)cc2)c1 [Compound 251]	< 100	< 100
COCCOc1cc(C(=O)N[C@H](C)c2ccc(C)nc2)cc(-c2ccc(C)cc2C#N)c1 [Compound 252]	< 100	< 100
COCCOc1cc(C(=O)N[C@H](C)c2cnc(C)nc2)cc(-c2ccc(C)cc2C#N)c1 [Compound 253]	< 100	< 100
Cc1ccc(-c2cc(Oc3nccs3)cc(C(=O)N[C@H](C)c3cnc(C)nc3)c2)c(C#N)c1 [Compound 254, (R)-2′-Cyano-4′-methyl-N-(1-(2-methylpyrimidin-5-yl)ethyl)-5-(thiazol-2-yloxy)biphenyl-3-carboxamide]	< 100	< 100
Cc1ccc(-c2cc(Oc3nccs3)cc(C(=O)N[C@H](C)c3ccc(C)nc3)c2)c(C#N)c1 [Compound 255]	< 100	< 100
Cc1ccc(-c2cc(C(=O)NCc3ccc(C)[n+]([O-])c3)cc(S(C)(=O)=O)c2)cc1 [Compound 256, 2-Methyl-5-((4′-methyl-5-(methylsulfonyl)biphenyl-3-ylcarboxamido)methyl)pyridine 1-oxide]	< 100	< 100
Cc1ccc(-c2cc(C(=O)N[C@H](CO)c3ccc(C)nc3)cc(S(C)(=O)=O)c2)cc1 [Compound 257, (S)—N-(2-Hydroxy-1-(6-methylpyridin-3-yl)ethyl)-4′-methyl-5-(methylsulfonyl)biphenyl-3-carboxamide]	< 100	< 100
Cc1ccc(-c2cc(Oc3ccccn3)cc(C(=O)N[C@H](C)c3cnc(C)nc3)c2)c(C#N)c1 [Compound 258]	100 to 500	< 100
Cc1ccc(-c2cc(Oc3ccccn3)cc(C(=O)N[C@H](C)c3ccc(C)nc3)c2)c(C#N)c1 [Compound 259]	< 100	< 100
Cc1ccc(-c2cc(Oc3nccs3)cc(C(=O)NCc3ccc(C)nc3)c2)c(C#N)c1 [Compound 260]	100 to 500	< 100
Cc1ccc(-c2cc(Oc3nccs3)cc(C(=O)NCc3cnc(C)nc3)c2)c(C#N)c1 [Compound 261]	100 to 500	< 100
COCCOc1cc(C(=O)NCc2cnc(C)nc2)cc(-c2ccc(C)cc2C#N)c1 [Compound 262]	100 to 500	< 100

Structure (SMILES)	IC50 (hP2X2/3H) [nM]	IC50 (hP2X3) [nM]
COCCOc1cc(C(=O)NCc2ccc(C)nc2)cc(-c2ccc(C)cc2C#N)c1 [Compound 263]	100 to 500	< 100
Cc1ccc(-c2cc(Oc3nccs3)cc(C(=O)N[C@H](C)c3ccc(C)nc3)c2)nc1 [Compound 264, (R)-3-(5-Methylpyridin-2-yl)-N-(1-(6-methylpyridin-3-yl)ethyl)-5-(thiazol-2-yloxy)benzamide]	< 100	< 100
COCCOc1cc(C(=O)N[C@H](C)c2ccc(C)nc2)cc(-c2ccc(C)cn2)c1 [Compound 265]	100 to 500	< 100
COCCOc1cc(C(=O)N[C@H](C)c2cnc(C)nc2)cc(-c2ccc(C)cn2)c1 [Compound 266]	100 to 500	< 100
Cc1ccc(-c2cc(C(=O)NCc3cnc(C)nc3)cc(C(O)c3ccccn3)c2)cc1 (stereo not shown) [Compound 267]	< 100	< 100
Cc1ccc(-c2cc(C(=O)N[C@H](C)c3cnc(C)nc3)cc(C(O)c3ccccn3)c2)cc1 (stereo partly shown) [Compound 268]	< 100	< 100
Cc1ccc(-c2cc(Oc3nccs3)cc(C(=O)N[C@H](C)c3cnc(C)nc3)c2)nc1 [Compound 269, (R)-3-(5-Methylpyridin-2-yl)-N-(1-(2-methylpyrimidin-5-yl)ethyl)-5-(thiazol-2-yloxy)benzamide]	< 100	< 100
Cc1ccc(-c2cc(Oc3ccccn3)cc(C(=O)N[C@H](C)c3cnc(C)nc3)c2)nc1 [Compound 270]	< 100	< 100
Cc1ccc(-c2cc(Oc3ccccn3)cc(C(=O)N[C@H](C)c3ccc(C)nc3)c2)nc1 [Compound 271]	< 100	< 100
Cc1ccc(-c2cc(Oc3ncccn3)cc(C(=O)N[C@H](C)c3ccc(C)nc3)c2)nc1 [Compound 272]	100 to 500	< 100
Cc1ccc(-c2cc(Oc3ncccn3)cc(C(=O)N[C@H](C)c3cnc(C)nc3)c2)nc1 [Compound 273]	501 to 1000	100 to 500
COCc1cc(C(=O)N[C@H](C)c2cnc(C)nc2)cc(-c2ccc(C)cn2)c1 [Compound 274, (R)-3-(Methoxymethyl)-5-(5-methylpyridin-2-yl)-N-(1-(2-methylpyrimidin-5-yl)ethyl)benzamide]	100 to 500	100 to 500
COCc1cc(C(=O)NCc2cnc(C)nc2)cc(-c2ccc(C)cn2)c1 [Compound 275]	501 to 1000	100 to 500
Cc1ccc(-c2cc(C(=O)N[C@H](C)c3ccc(C)nc3)cc(C(O)c3ccccc3)c2)nc1 (stereo partly shown) [Compound 276]	< 100	< 100
Cc1ccc(-c2cc(C(=O)N[C@H](C)c3cnc(C)nc3)cc(C(O)c3ccccc3)c2)nc1 (stereo partly shown) [Compound 277]	< 100	< 100
Cc1ccc(-c2cc(C(=O)N[C@H](C)c3cnc(C)nc3)cc(C(O)c3ccccc3)c2)c(C#N)c1 (stereo partly shown) [Compound 278]	< 100	< 100
Cc1ccc(-c2cc(C(=O)N[C@H](C)c3ccc(C)nc3)cc(C(O)c3ccccc3)c2)c(C#N)c1 (stereo partly shown) [Compound 279]	< 100	< 100
Cc1ccc(-c2cc(C(=O)N[C@H](C)c3ccc(C)nc3)cc(C(O)c3nccs3)c2)cc1 (stereo partly drawn) [Compound 280, 5-(Hydroxy(thiazol-2-yl)methyl)-4′-methyl-N—((R)-1-(6-methylpyridin-3-yl)ethyl)biphenyl-3-carboxamide]	< 100	< 100
Cc1ccc(-c2cc(C(=O)N[C@@H](C)CO)cc(S(=O)(=O)CC(C)C)c2)cc1 [Compound 281]	> 1000	< 100
Cc1ccc(-c2cc(C(=O)N[C@@H](C)CO)cc(S(=O)(=O)C3CCCC3)c2)cc1 [Compound 282]	> 1000	< 100
Cc1ccc(-c2cc(C(=O)N[C@H](C)c3cnc(C)nc3)cc(C(O)c3nccs3)c2)cc1 (stereo partly shown) [Compound 283]	< 100	< 100
Cc1ccc(-c2cc(C(=O)N[C@H](C)c3ccc(C)nc3)cc(C(O)c3ccccn3)c2)c(C#N)c1 (stereo partly shown) [Compound 284]	< 100	< 100
